Experimental data reported in US20160256481A1, “USE OF WATER SOLUBLE PLATINUM COMPLEX IN PREPARING DRUGS FOR PREVENTION AND TREATMENT OF CANCERS” (GUDUI BIOPHARMA TECHNOLOGY INC., priority 2011, published 2016).

Columns and labels:
[1] = cited from earlier work
[2] = test system: L1210 tumor cells; experiment: Antitumor efficacy in L1210 tumor-bearing CDF1 mice (increase in life span); assay type: in vivo; settings: for Survived Animals on Day 42: 6 per group; for Weight Changes: from the first day to the seventh day
Method: In the following test, antitumor efficacy studies were performed using 8-9 weeks old female CDF1 mice, the average weight of the animal is 20-25 grams. L1210 tumor cells (about 10^5 cells per mouse) were inoculated intraperitoneally. The water-soluble platinum complexes were used to treat the tumor-bearing animals and the efficacy was compared compared with the clinical platinum antitumor drugs. […] Drugs were administered intraperitoneally on day 1 and day 4 after tumor cell transplantation. The number of experimental animals in each group was 6.
The experimental animals were purchased from Vital River Laboratory Animal Technology Co. Ltd., Tumor cells L1210-leukemia cells were purchased from Shanghai An Yan Commercial Trade Co. Ltd.
The increase in life span (ILS) is calculated as follows:
Wherein, St=the weighted median survival time of treated animals; Su=the weighted median survival time of untreated animals

[3] = test system: HT-29-human colon cancer; experiment: MTS cytotoxicity assay (IC50); assay type: cell-based; settings: HT29, 96 h, read-out: IC50 value in human tumor cells HT29
Method: (§1) Containing 10% bovine fetal serum, 1 mM of sodium pyruvate, 2 mM of L-glutamine, 50 U/mL of penicillin, 50 μg/mL of streptomycin
(§2) Human tumor cells: du145-human prostate cancer; MCF-7-human breast cancer; SK0V3-human ovarian carcinoma, HT-29-human colon cancer; A549-human non-small cell lung cancer (adenocarcinoma), H460-human non-small cell lung cancer (large cell carcinoma), and animal tumor cells: L 1210-mice leukemia cells used in the following activity test experiments were all purchased from Shanghai An Yan Commercial Trade Co., Ltd.
(§3) MTS test method was used in cytotoxicity assay. The tumor cells of logarithmic phase were collected, and then the concentration of cell suspension was adjusted, 100 μL of the cell suspension was added to each well, the cells were placed at 1000-10000 cells/well (edge well filled with sterile PBS). Cells were incubated at 37° C. with 5% CO2 to make cell monolayer overspread the bottom of each well (96-well flat-bottomed microplate). 100 μL of different concentrations of the test compounds was added to each well. Each condition was measured in five replicates. The microplate was incubated at 37° C. with 5% CO2 for 96 h and checked with inverted microscope. MTS working reagent: To 2 mL of MTS (2 mg/mL, prepared by DPBS) was added 100 μL of PMS (1 mg/mL, prepared by DPBS). The cell culture medium was discarded after centrifugation, the cell culture plate was carefully washed 2-3 times with PBS. Before detecting the absorbance value (OD), to each sample containing well was added 100 μL of cell culture medium, then 20 μL of MTS working reagent was added. After incubation at 37° C. with 5% CO2 for 2 h, the OD (optical density) value was detected at 490 nm.
(§4) Control group: the conditions are the same as the above without adding the active ingredient of antitumor agents, and the OD value was detected at 490 nm on the end of the experiment.
(§5) The cell inhibiting rate of the drugs to tumor cell growth was calculated according to the following formula:
(§6) 1) Cell viability (%)=OD of treated group/OD of control group×100%
(§7) 2) The cell viabilities under the different drug concentrations were determined, and then plotted against drug concentration. The IC50 value is the corresponding concentration in the obtained curve when the cell viability was 50%.

[4] = test system: SKOV3-human ovarian carcinoma; experiment: MTS cytotoxicity assay (IC50); assay type: cell-based; settings: SKOV3, 96 h, read-out: IC50 value in human tumor cells SKOV3
Method: as §1, §2, §3, §4, §5, §6, §7

[5] = test system: du145-human prostate cancer; experiment: MTS cytotoxicity assay (IC50); assay type: cell-based; settings: DU145, 96 h, read-out: IC50 value in human tumor cells DU145
Method: as §1, §2, §3, §4, §5, §6, §7

[6] = test system: A549-human non-small cell lung cancer (adenocarcinoma); experiment: MTS cytotoxicity assay (IC50); assay type: cell-based; settings: A549, 96 h, read-out: IC50 value in human tumor cells A549
Method: as §1, §2, §3, §4, §5, §6, §7

[7] = test system: H460-human non-small cell lung cancer (large cell carcinoma); experiment: MTS cytotoxicity assay (IC50); assay type: cell-based; settings: H460, 96 h, read-out: IC50 value in human tumor cells H460
Method: as §1, §2, §3, §4, §5, §6, §7

[8] = test system: MCF-7-human breast cancer; experiment: MTS cytotoxicity assay (IC50); assay type: cell-based; settings: MCF7, 96 h, read-out: IC50 value in human tumor cells MCF7
Method: as §1, §2, §3, §4, §5, §6, §7

[9] = 1.25 mg/Kg i.p. day 1 and day 4

Compound: N.N.O=C([O-])C1(C(=O)[O-])CCC1.[Pt+2] [Carboplatin]
- water solubility [1]: 17 mg/mL
- ILS ([2]; 24 mg/Kg i.p. day 1 and day 4): 8%
- Survived Animals on Day 42 ([2]; 24 mg/Kg i.p. day 1 and day 4): 0/6
- Weight Changes ([2]; 24 mg/Kg i.p. day 1 and day 4): +0.6 g
- ILS ([2]; 40 mg/Kg i.p. day 1 and day 4): 22%
- Survived Animals on Day 42 ([2]; 40 mg/Kg i.p. day 1 and day 4): 0/6
- Weight Changes ([2]; 40 mg/Kg i.p. day 1 and day 4): -0.4 g
- ILS ([2]; 80 mg/Kg i.p. day 1 and day 4): 50%
- Survived Animals on Day 42 ([2]; 80 mg/Kg i.p. day 1 and day 4): 1/6
- Weight Changes ([2]; 80 mg/Kg i.p. day 1 and day 4): -1.2 g

Compound: N.N.[Cl][Pt][Cl] [Cisplatin]
- ILS [2, 9]: 20%
- Survived Animals on Day 42 [2, 9]: 0/6
- ILS ([2]; 2.5 mg/Kg i.p. day 1 and day 4): 125%
- Survived Animals on Day 42 ([2]; 2.5 mg/Kg i.p. day 1 and day 4): 1/6
- ILS ([2]; 5.0 mg/Kg i.p. day 1 and day 4): 265%
- Survived Animals on Day 42 ([2]; 5.0 mg/Kg i.p. day 1 and day 4): 3/6

Compound: cis-[trans-(1R, 2R)-diaminocyclohexane] Pt (II) (1-O-D-glucoside-propane-3-chloro-3,3-dicarboxylate) [Complex 2]
- IC50 [3]: 1880 nM
- IC50 [4]: 10 µM
- IC50 [5]: 5.19 µM
- IC50 [6]: 821 nM
- IC50 [7]: 22 µM
- IC50 [8]: 2000 nM
- ILS ([2]; 50 mg/Kg i.p. day 1 and day 4): >425%
- Survived Animals on Day 42 ([2]; 50 mg/Kg i.p. day 1 and day 4): 6/6
- Weight Changes ([2]; 50 mg/Kg i.p. day 1 and day 4): +1.1 g
- ILS ([2]; 100 mg/Kg i.p. day 1 and day 4): >425%
- Survived Animals on Day 42 ([2]; 100 mg/Kg i.p. day 1 and day 4): 6/6
- Weight Changes ([2]; 100 mg/Kg i.p. day 1 and day 4): +0 g
- ILS ([2]; 200 mg/Kg i.p. day 1 and day 4): >425%
- Survived Animals on Day 42 ([2]; 200 mg/Kg i.p. day 1 and day 4): 6/6
- Weight Changes ([2]; 200 mg/Kg i.p. day 1 and day 4): -0.4 g
